Assay [1] has as its target T1, p56lck GST-SH2 (lck SH2 domain) (Homo sapiens, UniProt P06239).
T1 construct: GST (N)
In words: Receptor-ligand equilibrium binding constants by surface plasmon resonance (biosensor), lck SH2 domain. Background: In SPR one partner is held on a chip, and binding of the other changes the refractive index at the surface.

In assay [2] the test system is Inter-leukin 2 (IL-2) production by activated Human Primary T Lymphocytes. In words: Primary T cell assay: inhibition of IL-2 production by activated human primary CD4 positive T lymphocytes. It is filed as cell-based. The conditions noted are these: Homo sapiens, CD4 positive, Table 5; mean IC50 value; CD4 positive T cells activated with anti-CD3/anti-CD28, IL-2 by ELISA; read-out: IC50 (blocking IL-2 production). The procedure: Summary of Primary T Cell Assay.
Inhibitors of the lck SH2 domain were assayed for their ability to block Inter-leukin 2 (IL-2) production by activated Human Primary T Lymphocytes. Peripheral blood mononuclear cells were isolated from whole blood by centrifugation in ficoll-Pague partitioning medium. CD4 positive cells were purified using negative selection. […] The compounds, at the appropriate dilutions, were added, and the cells were incubated for 60 minutes at 37° C. The CD4 positive T cells were then activated by the addition of anti-CD3 (60 ng/mL), anti CD28 (500 ng/mL) and goat anti mouse IgG coated beads, and incubated overnight at 37° C. The cells were pelleted, and the supernatents assayed for IL-2 by ELISA.
As SH2 domain containing proteins are intracellular, any therapeutic agent must be able to cross biological membranes. […] These characteristics may be quantified by observing inhibition in IL-2 production in human blood CD4 positive T-lymphocytes after T cell receptor and CD28 cross-linking.

Setting [3] is: Table 1, compounds of formula (II).

pIC50, pKd: −log10 of the molar value. A value given as a limit tells only on which side of the number the result lay.

T1 sequence (P06239 127-224 limits assumed): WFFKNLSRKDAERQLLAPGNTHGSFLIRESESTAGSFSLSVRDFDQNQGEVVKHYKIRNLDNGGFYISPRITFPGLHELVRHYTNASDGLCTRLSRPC

In general, pKd refers to the negative decadic logarithm of the Kd, by convention in mol/L. A low value points to a large Kd. The term pIC50 denotes −log10 of the IC50, conventionally taken in molar units. In assay [1] (setting [3]), `COc1ccc(Cn2ccc(C)c(NC(=O)C(Cc3ccc(C(C)(C)C(=O)O)cc3)NC(=O)Cc3ccc4ccccc4c3)c2=O)cc1C` (racemic) [Compound 149, 3-[2'-(R,S)-(2""-Naphthylacetyl)amino-3'-[4"-(1'"-carboxy-1"-methyl)ethyl]benzene]propanoylamino-1-(4-methoxy-3-methylbenzyl)-4-methyl-2-pyridone] gave a negative-log Kd (pKd) of 5.42. Moreover, in assay [2], the pIC50 is 4.27.

As for `CCOc1ccc(Cn2ccc(C)c(NC(=O)C(Cc3ccc(C(C)(C)C(=O)O)cc3)NC(=O)Cc3ccc4ccccc4c3)c2=O)cc1` (centres unmarked) [Compound 135], the pKd in assay [1] (setting [3]) was 5.89. Besides, the pIC50 in assay [2] was 4.46.

`CCCCCn1ccc(C)c(NC(=O)C(Cc2ccc(C(C)(C)C(=O)O)cc2)NC(=O)Cc2ccc3ccccc3c2)c1=O` (centres unmarked) [Compound 192] gave a pKd in assay [1] (setting [3]) of 5.92. In addition, the negative-log IC50 (pIC50) in assay [2] was 3.77.

`COc1ccc(Cn2ccc(C)c(NC(=O)C(Cc3ccc(C(C)(C)C(=O)O)cc3)NC(=O)COc3cccc4ccccc34)c2=O)cc1` (centres unmarked) [Compound 174] showed a pKd in assay [1] (setting [3]) of 6.00. In addition, in assay [2], the pIC50 is 4.17.

Regarding `COc1ccc(Cn2ccc(C)c(NC(=O)[C@H](Cc3ccc(C(C)(C)C(=O)O)cc3)NC(=O)C(C)(C)c3cccc4ccccc34)c2=O)cc1` [Compound 119], the pKd in assay [1] (setting [3]) was 5.44. For the same compound, the pIC50 in assay [2] is 4.28.

Compound `CCc1ccc(Cn2ccc(C)c(NC(=O)C(Cc3ccc(C(C)(C)C(=O)O)cc3)NC(=O)Cc3ccc4ccccc4c3)c2=O)cc1` (centres unmarked) [Compound 150] showed a pKd in assay [1] (setting [3]) of 5.34. Besides, the pIC50 in assay [2] was 4.22.

In the case of `CCC(C(=O)N[C@@H](Cc1ccc(C(C)(C)C(=O)O)cc1)C(=O)Nc1c(C)ccn(Cc2ccc(OC)cc2)c1=O)c1cccc2ccccc12` (some centres unmarked) [Compound 126], in assay [1] (setting [3]), the pKd was 6.17. Moreover, the pIC50 in assay [2] was 4.41.

For the compound `COc1ccc(Cn2ccc(C)c(NC(=O)[C@H](Cc3ccc(C(C)(C)C(=O)O)cc3)NC(=O)Cc3ccc(Br)c4ccccc34)c2=O)cc1` [Compound 111], the pKd in assay [1] (setting [3]) is 6.29. In assay [2], the pIC50 is 4.19.

In assay [1] (setting [3]), `Cc1ccn(Cc2ncc(C(F)(F)F)cc2Cl)c(=O)c1NC(=O)[C@H](Cc1ccc(C(C)(C)C(=O)O)cc1)NC(=O)Cc1ccc2ccccc2c1` [Compound 129] had a negative-log Kd (pKd) of 5.55. The pIC50 in assay [2] is 3.97.

In assay [1] (setting [3]), `COc1ccc(Cn2ccc(C)c(NC(=O)[C@H](Cc3ccc(C4(C(=O)O)CC4)cc3)NC(=O)Cc3ccc4ccccc4c3)c2=O)cc1` [Compound 218, 3-[2'-(S)-(2""-Naphthylacetyl)amino-3'-[4"-(1'"-carboxy)cyclopropyl]benzene]propanoylamino-1-(4-methoxybenzyl)-4-methyl-2-pyridone] gave a pKd of 5.74. Besides, the pIC50 in assay [2] is 4.05.

In turn, `COc1ccc(Cn2ccc(C)c(NC(=O)C(Cc3ccc(C(C)(C)C(=O)O)cc3)NC(=O)C(C)(C)c3ccc(C(C)(C)C)cc3)c2=O)cc1` (centres unmarked) [Compound 186] showed a pKd in assay [1] (setting [3]) of 6.11. Further, the pIC50 in assay [2] is 4.39.

In assay [1] (setting [3]), `COc1ccc(Cn2ccc(C)c(NC(=O)[C@H](Cc3ccc(C(C)(C)C(=O)O)cc3)NC(=O)Cc3ccc(NCC(C)(C)C)cc3)c2=O)cc1` [Compound 132] had a pKd of 6.60. Moreover, the pIC50 in assay [2] is 3.85.

As to `COc1ccc(Cn2ccc(C)c(NC(=O)C(Cc3ccc(C(C)(C)C(=O)O)cc3)NC(=O)Cc3ccc(Oc4ccccc4)cc3)c2=O)cc1` (centres unmarked) [Compound 172], the pKd in assay [1] (setting [3]) is 6.18. The negative logarithm of the IC50 (pIC50) in assay [2] was 4.02.

As to `COc1ccc(Cn2ccc(C)c(NC(=O)C(Cc3ccc(C(C)(C)C(=O)O)cc3)NC(=O)Cc3ccc(C(C)(C)C)cc3)c2=O)cc1` (centres unmarked) [Compound 173], the pKd in assay [1] (setting [3]) is 6.51. The pIC50 in assay [2] was 4.03.

With `COc1ccc(Cn2ccc(C)c(N(C)C(=O)C(Cc3ccc(C(C)(C)C(=O)O)cc3)NC(=O)Cc3ccc4ccccc4c3)c2=O)cc1` (centres unmarked) [Compound 151], the pKd in assay [1] (setting [3]) is below 3.70. Also, the pIC50 in assay [2] was 4.17.

`CCC(CC)(C(=O)N[C@@H](Cc1ccc(C(C)(C)C(=O)O)cc1)C(=O)Nc1c(C)ccn(Cc2ccc(OC)cc2)c1=O)c1ccc2ccccc2c1` [Compound 123] showed a negative logarithm of the Kd (pKd) in assay [1] (setting [3]) of 6.08. For the same compound, the pIC50 in assay [2] is 4.46.

In assay [1] (setting [3]), `Cc1ccn(CCCc2ccccc2)c(=O)c1NC(=O)C(Cc1ccc(C(C)(C)C(=O)O)cc1)NC(=O)Cc1cccc2ccccc12` (centres unmarked) [Compound 182] had a pKd of 5.68. In assay [2], the pIC50 is 4.19.

Take `COc1ccc(Cn2ccc(C)c(NC(=O)C(Cc3ccc(C(C)(C)C(=O)O)cc3)NC(=O)C(C)(C)c3ccccc3)c2=O)cc1` (centres unmarked) [Compound 180]: the negative logarithm of the Kd (pKd) in assay [1] (setting [3]) was 5.60. The pIC50 in assay [2] was 4.09.

`COc1ccc(Cn2ccc(C)c(NC(=O)C(Cc3ccc(C(C)(C)C(=O)O)cc3)NC(=O)Cc3cccc4ccccc34)c2=O)cc1` (centres unmarked) [Compound 169]: the pKd in assay [1] (setting [3]) is 6.28. Further, in assay [2], the pIC50 was 3.94.

The compound `COc1ccc(Cn2ccc(C)c(NC(=O)C(Cc3ccc(C(C)(C)C(=O)O)cc3)NC(=O)Cc3c(OC)ccc4ccccc34)c2=O)cc1` (centres unmarked) [Compound 187] had a pKd in assay [1] (setting [3]) of 6.74. Besides, in assay [2], the pIC50 is 4.28.

In assay [1] (setting [3]), `Cc1ccn(Cc2ccc3c(c2)OCO3)c(=O)c1NC(=O)C(Cc1ccc(C(C)(C)C(=O)O)cc1)NC(=O)Cc1ccc2ccccc2c1` (centres unmarked) [Compound 155] gave a pKd of 6.43. The pIC50 in assay [2] is 4.12.

Regarding `COc1ccc(Cn2ncc(C)c(NC(=O)C(Cc3ccc(C(C)(C)C(=O)O)cc3)NC(=O)Cc3ccc4ccccc4c3)c2=O)cc1` (racemic) [Compound 242, 4-[2'-(R,S)-(2""-Naphthylacetyl)amino-3'-[4"-(1'"-carboxy-1'"-methyl)ethyl]benzene]propanoylamino-2-(4-methoxybenzyl)-5-methyl-3-pyridazinone], in assay [1] (Table 2, compounds of formula (III)), the pKd is 6.28. Besides, in assay [2], the pIC50 is 4.22.

Take `COc1ccc(Cn2ccc(C)c(NC(=O)[C@H](Cc3ccc(C(C)(C)C(=O)O)cc3)NC(=O)C(C)c3ccc(CC(C)C)cc3)c2=O)cc1` (some centres unmarked) [Compound 112]: the pKd in assay [1] (setting [3]) was 5.82. The pIC50 in assay [2] is 4.22.

`Cc1ccn(CC2CCCCC2)c(=O)c1NC(=O)C(Cc1ccc(C(C)(C)C(=O)O)cc1)NC(=O)Cc1ccc2ccccc2c1` (centres unmarked) [Compound 195]: the negative-log Kd (pKd) in assay [1] (setting [3]) was 5.96. Moreover, in assay [2], the pIC50 is 4.20.

`Cc1ccn(CC2(c3ccccc3)CC2)c(=O)c1NC(=O)C(Cc1ccc(C(C)(C)C(=O)O)cc1)NC(=O)Cc1cccc2ccccc12` (centres unmarked) [Compound 213] had a pKd in assay [1] (setting [3]) of 5.70. Further, the pIC50 in assay [2] was 3.78.

As for `COc1ccc(C(C)n2ccc(C)c(NC(=O)C(Cc3ccc(C(C)(C)C(=O)O)cc3)NC(=O)C(C)(C)c3ccc4ccccc4c3)c2=O)cc1` (centres unmarked) [Compound 184], the pKd in assay [1] (setting [3]) is 5.89. For the same compound, the pIC50 in assay [2] was 4.28.

On to `Cc1ccn(Cc2ccccc2Oc2ccccc2)c(=O)c1NC(=O)C(Cc1ccc(C(C)(C)C(=O)O)cc1)NC(=O)Cc1ccc2ccccc2c1` (centres unmarked) [Compound 156], for which the pKd in assay [1] (setting [3]) is 5.40. The pIC50 in assay [2] was 4.34.

`COc1ccc(Cn2ccc(C)c(NC(=O)[C@H](Cc3ccc(C(C)(C)C(=O)O)cc3)NC(=O)C(C)(C)c3ccc(CC(C)C)cc3)c2=O)cc1` [Compound 124] had a pKd in assay [1] (setting [3]) of 5.82. The pIC50 in assay [2] is 4.38.

The values are drawn from patent US6284768A, “Src family SH2 domain inhibitors” (Boehringer Ingelheim Pharmaceuticals, Inc., priority 1999, dated 2001).
